Test system: 817829-284-R-J1-PDC complex spheroids, viability
Assay: Anticancer human tumor 817829-284-R-J1-PDC patient-derived colon adenocarcinoma cell line growth inhibition [CLK]
Details: for IC50: curve of first compound; for viability, T/C: stronger effect = lower value; active = viability on the fitted dose curve at most 10% of control; inactive = the rest
Text: A high-throughput screen of multi-cell type tumor spheroids was designed to identify active combinations of […] and targeted small molecules. Complex spheroids include a stromal component modeled by human endothelial cells (HUVEC) and fibroblasts modeled by human mesenchymal stem cells (MSCs). The concentration ranges selected for each drug and investigational agent were based upon clinically achievable concentrations if the clinical Cmax of the agent was known.
Compounds. The drugs and investigational agents: cirtuvivint (SM08502; NSC835563), CC-671 (NSC850746), vemurafenib (NSC761431), tapotoclax (NSC804041), sotorasib (NSC818433), adagrasib (NSC831453), MRTX-1133 (NSC836407), BAY2416964 (NSC825713), copanlisib (NSC816437), inavolisib (NSC800729), abemaciclib (NSC768073), osimertinib (NSC779217), entinostat (NSC756642), eltanexor (KPT-8602, NSC794443), venetoclax (NSC766270), ceralasertib (NSC777638), bortezomib (NSC756655), olaparib (NSC753686), talazoparib (NSC767125), alisertib (NSC759677), peposertib (NSC802822), gemcitabine (NSC613327), 5-fluorouracil (NSC19893), SN-38 (NSC673596), oxaliplatin (NSC266046), paclitaxel (NSC125973), and doxorubicin (NSC123127), were obtained from the National Cancer Institute (NCI) Developmental Therapeutics Program Chemical Repository. The FDA-approved anticancer drug set is available from the Developmental Therapeutics Program at https://dtp.cancer.gov/organization/dscb/obtaining/available plates.htm. […] The stock solutions were prepared in dimethyl sulfoxide (DMSO, Sigma-Aldrich, St. Louis, MO, cat. D2650), except for the platinum complexes which were prepared in saline (Quality Biological, Gaithersburg, MD, cat. 114-055-101), at 800-fold the tested concentration and stored at -70 degrees C prior to their use. All drugs and investigational agents were tested over a range starting from a high concentration at or near the clinical Cmax and decreasing in half-log increments. If the clinical Cmax for an agent had not been determined, the highest concentration tested was 10 microM.
Cell Culture. All cells were maintained in an incubator at 37 degrees C and 5% CO2 with 95% humidity. The PDC lines were cultured according to standard operating procedures established by the NCI PDMR. Briefly, all PDCs were thawed and cultured in Matrigel-coated flasks prepared with a working solution of 1X Ham's F-12 nutrient mix, without supplementation (Invitrogen, Waltham, MA, cat. 11765054), 100 U/mL penicillin-streptomycin (Invitrogen, cat. 15140122), and 2.5% Matrigel (Corning Inc., Corning, NY, cat. 354248) for the first three passages. The 947758-054-R-J2-PDC line was cultured in 6B/Colon 1A media, which includes advanced DMEM/F-12 (Thermo Fisher Scientific, cat. 12634028), 10 mM HEPES (Thermo Fisher Scientific, cat. 15630080), 1X GlutaMAX supplement (Thermo Fisher Scientific, cat. 35050061), 0.1 mg/mL primocin (InvivoGen, cat. ant-pm-2), 10% defined fetal bovine serum, heat inactivated (HyClone Laboratories Inc., cat. SH30070.03HI), 1.25 mM N-Acetyl-L-cysteine (Sigma-Aldrich, cat. A9165), 10 mM nicotinamide (Sigma-Aldrich, cat. N0636), 1X B-27 supplement (Thermo Fisher Scientific, cat. 17504044), 1X N-2 supplement (Thermo Fisher Scientific, cat. 17502048), and 10 microM Y-27632 dihydrochloride (Tocris Bioscience, cat. 1254). The 876862-298-R-J1-PDC was cultured in 6E media, which includes all 6B/Colon 1A media components plus 50% L-WRN conditioned media (ATCC, cat. CRL-3276), 50 ng/mL recombinant human EGF recombinant protein (hEGF; Thermo Fisher Scientific, cat. PHG0311), 10 ng/mL recombinant human fibroblast growth factor 10 (hGFG-10; PeproTech, cat. 100-26), 1 ng/mL recombinant human fibroblast growth factor 2 (hFGF-2; PeproTech, cat. 100-18B), and 1 µM prostaglandin E2 (PGE2; Tocris, cat. 2296). The 227483-062-R1-J1-PDC line was cultured in Panc media, containing all 6E components except hFGF-2, with the addition of 500 nM SB-431542 (Selleckchem, cat. S1067) and 10 nM gastrin (Tocris, cat. 3006). […]

[1] = second compound 0.0316 µM, first compound 0.0316 µM
[2] = second compound 0.0316 µM, first compound 0.1 µM
[3] = second compound 0.0316 µM, first compound 0.316 µM
[4] = second compound 0.0316 µM, first compound 1 µM
[5] = second compound 0.0316 µM, first compound 3.16 µM
[6] = second compound 0.0316 µM, first compound 10 µM
[7] = second compound 0.1 µM, first compound 0.0316 µM
[8] = second compound 0.1 µM, first compound 0.1 µM
[9] = second compound 0.1 µM, first compound 0.316 µM
[10] = second compound 0.1 µM, first compound 1 µM
[11] = second compound 0.1 µM, first compound 3.16 µM
[12] = second compound 0.1 µM, first compound 10 µM
[13] = second compound 0.316 µM, first compound 0.0316 µM
[14] = second compound 0.316 µM, first compound 0.1 µM
[15] = second compound 0.316 µM, first compound 0.316 µM
[16] = second compound 0.316 µM, first compound 1 µM
[17] = second compound 0.316 µM, first compound 3.16 µM
[18] = second compound 0.316 µM, first compound 10 µM
[19] = second compound 1 µM, first compound 0.0316 µM
[20] = second compound 1 µM, first compound 0.1 µM
[21] = second compound 1 µM, first compound 0.316 µM
[22] = second compound 1 µM, first compound 1 µM
[23] = second compound 1 µM, first compound 3.16 µM
[24] = second compound 1 µM, first compound 10 µM
[25] = second compound 3.16 µM, first compound 0.0316 µM
[26] = second compound 3.16 µM, first compound 0.1 µM
[27] = second compound 3.16 µM, first compound 0.316 µM
[28] = second compound 3.16 µM, first compound 1 µM
[29] = second compound 3.16 µM, first compound 3.16 µM
[30] = second compound 3.16 µM, first compound 10 µM
[31] = second compound 10 µM, first compound 0.0316 µM
[32] = second compound 10 µM, first compound 0.1 µM
[33] = second compound 10 µM, first compound 0.316 µM
[34] = second compound 10 µM, first compound 1 µM
[35] = second compound 10 µM, first compound 3.16 µM
[36] = second compound 10 µM, first compound 10 µM
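Note: spheroids exposed to the agents for seven days before readout.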

CC(Nc1ccc2c(c1)OCCn1cc(N3C(=O)OCC3C(F)F)nc1-2)C(N)=O (centres undefined) + CNC(=O)c1ccc(Nc2nc(OC3CCCC3)c3c(-c4ccc5nc(C)oc5c4)c[nH]c3n2)c(OC)c1
inactive: viability, T/C [1] 40% | viability, T/C [2] 32.3% | viability, T/C [3] 42.4% | viability, T/C [4] 48.6% | viability, T/C [5] 29.8% | viability, T/C [6] 20.4% | viability, T/C [7] 20.4% | viability, T/C [8] 26.4% | viability, T/C [9] 20.2% | viability, T/C [10] 20% | viability, T/C [11] 33.4% | viability, T/C [12] 15.1% | viability, T/C [13] 37.9% | viability, T/C [14] 19.6% | viability, T/C [15] 19.9% | viability, T/C [16] 21.6% | viability, T/C [17] 18.5% | viability, T/C [18] 15.5% | viability, T/C [19] 23.4% | viability, T/C [20] 20.8% | viability, T/C [21] 16.7% | viability, T/C [22] 17.6% | viability, T/C [23] 16.1% | viability, T/C [24] 15.3% | viability, T/C [25] 22.2% | viability, T/C [26] 18.8% | viability, T/C [27] 16.5% | viability, T/C [28] 18.6% | viability, T/C [29] 13.1% | viability, T/C [30] 13.6% | viability, T/C [31] 15.1% | viability, T/C [32] 16.6% | viability, T/C [33] 14% | viability, T/C [34] 18.2% | viability, T/C [35] 16.8% | viability, T/C [36] 9.33%
< 0.0316 µM: IC50 (second compound 0.0316 µM) | IC50 (second compound 0.1 µM) | IC50 (second compound 0.316 µM) | IC50 (second compound 1 µM) | IC50 (second compound 3.16 µM) | IC50 (second compound 10 µM)

Nc1ccn(C2OC(CO)C(O)C2(F)F)c(=O)n1 (centres undefined) + CN1CCN(c2cc(C(=O)Nc3cc4cc(-c5cnn(C)c5)ccc4cn3)ccn2)CC1
< 0.0316 µM: IC50 (second compound 0.0316 µM) | IC50 (second compound 0.1 µM) | IC50 (second compound 0.316 µM) | IC50 (second compound 1 µM) | IC50 (second compound 3.16 µM) | IC50 (second compound 10 µM)
active: viability, T/C [1] 4.65% | viability, T/C [2] 4.62% | viability, T/C [3] 3.63% | viability, T/C [4] 3.9% | viability, T/C [5] 3.03% | viability, T/C [6] 1.88% | viability, T/C [7] 3.65% | viability, T/C [8] 3.83% | viability, T/C [9] 3.7% | viability, T/C [10] 3.47% | viability, T/C [11] 3.1% | viability, T/C [12] 1.72% | viability, T/C [13] 1.66% | viability, T/C [14] 1.94% | viability, T/C [15] 1.74% | viability, T/C [16] 1.53% | viability, T/C [17] 1.54% | viability, T/C [18] 0.9% | viability, T/C [19] 0.14% | viability, T/C [20] 0.08% | viability, T/C [21] 0.09% | viability, T/C [22] 0.07% | viability, T/C [23] 0.14% | viability, T/C [24] 0.07% | viability, T/C [25] 0.11% | viability, T/C [26] 0.14% | viability, T/C [27] 0.17% | viability, T/C [28] 0.09% | viability, T/C [29] 0.11% | viability, T/C [30] 0.09% | viability, T/C [31] 0.05% | viability, T/C [32] 0.09% | viability, T/C [33] 0.09% | viability, T/C [34] 0.09% | viability, T/C [35] 0.11% | viability, T/C [36] 0.11%

— PubChem BioAssay AID2060599 (Molecular Pharmacology Branch, DTP, NCI, 2025)
